Each block holds one molecule with its values, some of them ahead of it.
Tested on: 817829-284-R-J1-PDC multi-cell spheroid viability
Experiment: Anticancer human tumor 817829-284-R-J1-PDC patient-derived colon adenocarcinoma cell line growth inhibition [PI3K]
Settings: for IC50: curve of first compound; for viability, T/C: stronger effect = lower value
In short: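 Spheroid viability read-out. Co-cultures contained the tumor line plus HUVEC and human MSCs. Each agent was paired with a PI3K inhibitor (inavolisib, alpelisib, duvelisib, copanlisib) across half-log dilutions starting at clinical Cmax, or at 10 microM when Cmax was unknown.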

[1] = second compound 0.00316 µM, first compound 0.0316 µM
[2] = second compound 0.00316 µM, first compound 0.1 µM
[3] = second compound 0.00316 µM, first compound 0.316 µM
[4] = second compound 0.00316 µM, first compound 1 µM
[5] = second compound 0.00316 µM, first compound 3.16 µM
[6] = second compound 0.00316 µM, first compound 10 µM
[7] = second compound 0.01 µM, first compound 0.0316 µM
[8] = second compound 0.01 µM, first compound 0.1 µM
[9] = second compound 0.01 µM, first compound 0.316 µM
[10] = second compound 0.01 µM, first compound 1 µM
[11] = second compound 0.01 µM, first compound 3.16 µM
[12] = second compound 0.01 µM, first compound 10 µM
[13] = second compound 0.0316 µM, first compound 0.0316 µM
[14] = second compound 0.0316 µM, first compound 0.1 µM
[15] = second compound 0.0316 µM, first compound 0.316 µM
[16] = second compound 0.0316 µM, first compound 1 µM
[17] = second compound 0.0316 µM, first compound 3.16 µM
[18] = second compound 0.0316 µM, first compound 10 µM
[19] = second compound 0.1 µM, first compound 0.0316 µM
[20] = second compound 0.1 µM, first compound 0.1 µM
[21] = second compound 0.1 µM, first compound 0.316 µM
[22] = second compound 0.1 µM, first compound 1 µM
[23] = second compound 0.1 µM, first compound 3.16 µM
[24] = second compound 0.1 µM, first compound 10 µM
[25] = second compound 0.316 µM, first compound 0.0316 µM
[26] = second compound 0.316 µM, first compound 0.1 µM
[27] = second compound 0.316 µM, first compound 0.316 µM
[28] = second compound 0.316 µM, first compound 1 µM
[29] = second compound 0.316 µM, first compound 3.16 µM
[30] = second compound 0.316 µM, first compound 10 µM
[31] = second compound 1 µM, first compound 0.0316 µM
[32] = second compound 1 µM, first compound 0.1 µM
[33] = second compound 1 µM, first compound 0.316 µM
[34] = second compound 1 µM, first compound 1 µM
[35] = second compound 1 µM, first compound 3.16 µM
[36] = second compound 1 µM, first compound 10 µM
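Note: spheroids exposed to agents for seven days before readout.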
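Throughout, for viability, T/C: percent of vehicle DMSO control viability which is 100%.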

IC50 (second compound 0.00316 µM): < 0.0316 µM
IC50 (second compound 0.01 µM): 0.106 µM
IC50 (second compound 0.0316 µM): < 0.0316 µM
IC50 (second compound 0.1 µM): 0.0416 µM
IC50 (second compound 0.316 µM): < 0.0316 µM
IC50 (second compound 1 µM): < 0.0316 µM
Structure (SMILES): Cn1ncc(Cl)c1-c1cc(C(=O)NC(CN)Cc2cccc(F)c2)sc1Cl (stereo unspecified) + CC(Nc1ccc2c(c1)OCCn1cc(N3C(=O)OCC3C(F)F)nc1-2)C(N)=O
viability, T/C [1]: 73.2%
viability, T/C [2]: 38.6%
viability, T/C [3]: 22.8%
viability, T/C [4]: 16.9%
viability, T/C [5]: 16.3%
viability, T/C [6]: 98.6%
viability, T/C [7]: 81.4%
viability, T/C [8]: 51%
viability, T/C [9]: 22%
viability, T/C [10]: 19.1%
viability, T/C [11]: 14.4%
viability, T/C [12]: 69%
viability, T/C [13]: 49.4%
viability, T/C [14]: 30.6%
viability, T/C [15]: 14.9%
viability, T/C [16]: 16.5%
viability, T/C [17]: 14.7%
viability, T/C [18]: 55.9%
viability, T/C [19]: 56.3%
viability, T/C [20]: 31.4%
viability, T/C [21]: 21%
viability, T/C [22]: 16.7%
viability, T/C [23]: 14%
viability, T/C [24]: 53.2%
viability, T/C [25]: 46.4%
viability, T/C [26]: 33.7%
viability, T/C [27]: 16.8%
viability, T/C [28]: 13.2%
viability, T/C [29]: 11.9%
viability, T/C [30]: 44.7%
viability, T/C [31]: 34.4%
viability, T/C [32]: 25.6%
viability, T/C [33]: 16.7%
viability, T/C [34]: 14.2%
viability, T/C [35]: 12.3%
viability, T/C [36]: 84.7%

IC50 (second compound 0.00316 µM): 0.0523 µM
IC50 (second compound 0.01 µM): > 0.1 µM
IC50 (second compound 0.0316 µM): 0.0123 µM
IC50 (second compound 0.1 µM): < 0.000316 µM
IC50 (second compound 0.316 µM): < 0.000316 µM
IC50 (second compound 1 µM): < 0.000316 µM
Structure (SMILES): CC(=O)c1c(C)c2cnc(Nc3ccc(N4CCNCC4)cn3)nc2n(C2CCCC2)c1=O + COc1c(OCCCN2CCOCC2)ccc2c3n(c(=NC(=O)c4cnc(N)nc4)nc12)CCN3
viability, T/C (second compound 0.00316 µM, first compound 0.000316 µM): 79.1%
viability, T/C (second compound 0.00316 µM, first compound 0.001 µM): 85.2%
viability, T/C (second compound 0.00316 µM, first compound 0.00316 µM): 66.7%
viability, T/C (second compound 0.00316 µM, first compound 0.01 µM): 74.5%
viability, T/C [1]: 66.6%
viability, T/C [2]: 30.2%
viability, T/C (second compound 0.01 µM, first compound 0.000316 µM): 91.1%
viability, T/C (second compound 0.01 µM, first compound 0.001 µM): 60%
viability, T/C (second compound 0.01 µM, first compound 0.00316 µM): 56%
viability, T/C (second compound 0.01 µM, first compound 0.01 µM): 55.7%
viability, T/C [7]: 75.7%
viability, T/C [8]: 34%
viability, T/C (second compound 0.0316 µM, first compound 0.000316 µM): 65.2%
viability, T/C (second compound 0.0316 µM, first compound 0.001 µM): 40.6%
viability, T/C (second compound 0.0316 µM, first compound 0.00316 µM): 48.3%
viability, T/C (second compound 0.0316 µM, first compound 0.01 µM): 60.6%
viability, T/C [13]: 33.5%
viability, T/C [14]: 24.3%
viability, T/C (second compound 0.1 µM, first compound 0.000316 µM): 29.2%
viability, T/C (second compound 0.1 µM, first compound 0.001 µM): 30.3%
viability, T/C (second compound 0.1 µM, first compound 0.00316 µM): 34.6%
viability, T/C (second compound 0.1 µM, first compound 0.01 µM): 21.1%
viability, T/C [19]: 22.7%
viability, T/C [20]: 25.3%
viability, T/C (second compound 0.316 µM, first compound 0.000316 µM): 16.9%
viability, T/C (second compound 0.316 µM, first compound 0.001 µM): 22.2%
viability, T/C (second compound 0.316 µM, first compound 0.00316 µM): 20.8%
viability, T/C (second compound 0.316 µM, first compound 0.01 µM): 17.9%
viability, T/C [25]: 18.2%
viability, T/C [26]: 16.2%
viability, T/C (second compound 1 µM, first compound 0.000316 µM): 11.2%
viability, T/C (second compound 1 µM, first compound 0.001 µM): 10.2%
viability, T/C (second compound 1 µM, first compound 0.00316 µM): 8.91%
viability, T/C (second compound 1 µM, first compound 0.01 µM): 12.2%
viability, T/C [31]: 11.6%
viability, T/C [32]: 7.24%

IC50 (second compound 0.00316 µM): < 0.0316 µM
IC50 (second compound 0.01 µM): < 0.0316 µM
IC50 (second compound 0.0316 µM): < 0.0316 µM
IC50 (second compound 0.1 µM): < 0.0316 µM
IC50 (second compound 0.316 µM): < 0.0316 µM
IC50 (second compound 1 µM): < 0.0316 µM
Structure (SMILES): CC1(C)CCC(Nc2ncc(C(F)(F)F)c(-c3c[nH]c4c(P(C)(C)=O)c(C#N)ccc34)n2)CN1 (stereo unspecified) + CC(Nc1ccc2c(c1)OCCn1cc(N3C(=O)OCC3C(F)F)nc1-2)C(N)=O
viability, T/C [1]: 27.5%
viability, T/C [2]: 24.9%
viability, T/C [3]: 36.7%
viability, T/C [4]: 28.7%
viability, T/C [5]: 30%
viability, T/C [6]: 0.96%
viability, T/C [7]: 26.9%
viability, T/C [8]: 25.7%
viability, T/C [9]: 25.2%
viability, T/C [10]: 33.6%
viability, T/C [11]: 26.4%
viability, T/C [12]: 1.03%
viability, T/C [13]: 24.1%
viability, T/C [14]: 28.1%
viability, T/C [15]: 25.9%
viability, T/C [16]: 32%
viability, T/C [17]: 24.6%
viability, T/C [18]: 0.85%
viability, T/C [19]: 25.2%
viability, T/C [20]: 28.4%
viability, T/C [21]: 32.1%
viability, T/C [22]: 27.7%
viability, T/C [23]: 29.2%
viability, T/C [24]: 1.66%
viability, T/C [25]: 23.4%
viability, T/C [26]: 28.7%
viability, T/C [27]: 26%
viability, T/C [28]: 22.8%
viability, T/C [29]: 27.9%
viability, T/C [30]: 1.09%
viability, T/C [31]: 21.7%
viability, T/C [32]: 24.1%
viability, T/C [33]: 25.8%
viability, T/C [34]: 26.2%
viability, T/C [35]: 26.6%
viability, T/C [36]: 1.56%
